In patent publication US5559156A, “Method for treating animals infected with Babesia spp” (Glaxo Wellcome, Inc., priority 1994, dated 1996):
Blank lines part the entries; values can stand above or below the molecule they belong to.

What was measured:
Leishmania donovani = assay: Activity against Leishmania donovani in vitro in mouse peritoneal macrophages; format: cell-based, Leishmania donovani (in macrophages of CDl mice)
Protocol: Leishmania donovani was routinely maintained in male golden hamsters (Wright'strain). Amastigotes were isolated from the spleen of infected hamsters 6-8 weeks after infection for use in experimental studies.
The procedure of Neal and Croft (Journal of Antimicrobial Chemotherapy 14, 463-475 (1984) was followed. Mouse peritoneal macrophages were isolated from the peritoneal cavity of outbred CDl mice. Macrophages were cultured in Labtek eight-well tissue chamber slides in RPMI 1640 medium plus 10% heat-inactivated foetal calf serum at 37° in a 5% CO2 -air mixture. Cultures were infected with freshly isolated amastigotes 24 hours before the start of drug treatment. Finally, infected macrophages where incubated in the presence of medium containing the test compound for 7 days, medium being replaced on days 1, 3 and 5 after infection.
The compound was tested in a five-fold dilution series from 50 μM with four replicates at each dilution. Fine suspensions of the compound for testing were prepared by dilution with medium of solutions initially prepared in echanol.
The proportion of infected macrophages in Giemsa stained preparations was determined after 7 days exposure to the test compound. The ED50 value was calculated by a sigmoidal analysis.

L. donovani = assay: Activity against L. donovani in vivo in Balb/c mice; set-up: species or system L. donovani (in male Balb/c mice); conditions: for % Suppression of Liver Amastigotes: 0.25% cellacol
Protocol: Male Balb/c mice were infected intravenously with 5×10^6 L. donovani amastigotes obtained as in Example 5. One week after infection mice were randomly divided into groups of 5 and treatment with test compound commenced, using cellacol as the vehicle for the test compound. Four days after the completion of treatment all mice were sacrificed. Their livers were removed, weighted and impression smears were fixed with methanol and […] stained. The activity of the compound was determined from the number of amastigotes/500 liver cells in treated and untreated groups.

B. divergens = assay: Activity against B. divergens infection in gerbils, single oral dose at the time of infection; format: in vivo; conditions: for % Activity / Days to 0.1% Parasitaemia / Days to Redwater / Maximum % Parasitaemia / % Control % Parasitaemia (day 3): single dose
Protocol: Gerbils, in groups of 5, were injected intraperitoneally with gerbil erythrocytes infected with 10^7 B divergens. At the time of infection, the gerbils were given, per os by stomach tube, a single dose of test compound, diluted in methyl cellulose. The gerbils were assessed for the time to reach 0.1% parasitaemia and the time to reach haemoglobinurea (redwater). The maximum parasitaemia reached and suppression of parasitaemia relative to controls were assessed and the activity of the test compound calculated.

B-divergens [1] = assay: Activity against B-divergens in vitro in bovine red cells; format: cell-based; conditions: Bos taurus, read-out: IC50 Bovine
Protocol: (§1) Activity against Babesiosis in vitro
(§2) The activity of the test compound against B-divergens in vitro, both in bovine and human red cells was measured and compared with the activities of standard anti-babesials.

B-divergens [2] = assay: Activity against B-divergens in vitro in human red cells; format: cell-based; conditions: for IC50: read-out: IC50 Human
Protocol: as §1, §2

B-divergens [3] = conditions: two patients; cited from earlier work

Compound: O=C1C(O)=C(C2CCC(c3ccc(Cl)cc3)CC2)C(=O)c2ccccc21 (centres unmarked) [2-[4-(4-chlorophenyl)cyclohexyl]-3-hydroxy-1,4-napthoquinone]
% Activity (B. divergens; 0.1 mg/kg per os): 0.0%
Days to 0.1% Parasitaemia (B. divergens; 0.1 mg/kg per os): 1.0 ± 0.0 days
Days to Redwater (B. divergens; 0.1 mg/kg per os): 3.0 ± 0.0 days
Maximum % Parasitaemia (B. divergens; 0.1 mg/kg per os): > 40%
% Control % Parasitaemia (day 3) (B. divergens; 0.1 mg/kg per os): 138.7 ± 18.6%
% Activity (B. divergens; 1.0 mg/kg per os): 86.1%
Days to 0.1% Parasitaemia (B. divergens; 1.0 mg/kg per os): 2.5 ± 0.57 days
Days to Redwater (B. divergens; 1.0 mg/kg per os): 4.0 ± 0.82 days
Maximum % Parasitaemia (B. divergens; 1.0 mg/kg per os): > 40%
% Control % Parasitaemia (day 3) (B. divergens; 1.0 mg/kg per os): 13.9 ± 4.3%
% Activity (B. divergens; 10.0 mg/kg per os): 100%
Days to 0.1% Parasitaemia (B. divergens; 10.0 mg/kg per os): 5.6 ± 2.5 days
Days to Redwater (B. divergens; 10.0 mg/kg per os): 9.2 ± 1.8 days
Maximum % Parasitaemia (B. divergens; 10.0 mg/kg per os): 4.02%
% Control % Parasitaemia (day 3) (B. divergens; 10.0 mg/kg per os): 0.0%
% Activity (B. divergens; 50.0 mg/kg per os): 100%
Days to 0.1% Parasitaemia (B. divergens; 50.0 mg/kg per os): > 10.0 days
Days to Redwater (B. divergens; 50.0 mg/kg per os): > 10.0 days
Maximum % Parasitaemia (B. divergens; 50.0 mg/kg per os): 0.0%
% Control % Parasitaemia (day 3) (B. divergens; 50.0 mg/kg per os): 0.0%
activity in vivo against B. divergens in gerbils (B. divergens; per os): active in vivo against B. divergens in gerbils

Compound: CC[n+]1c(-c2ccccc2)c2cc(N)ccc2c2ccc(N)cc21 [Ethidium bromide]
IC50 (B-divergens [1]): 47 nM
IC50 (B-divergens [2]; Homo sapiens): 69 nM

Compound: N=C(N)c1ccc(OCCCCCOc2ccc(C(=N)N)cc2)cc1 [Pentamidine isethionate]
IC50 (B-divergens [1]; in vitro, bovine red cells): 360 nM
IC50 (B-divergens [2]; in vitro, human red cells): 456 nM

Now from value to molecule, other results behind:

EC50 (Leishmania donovani; Leishmania donovani, Peritoneal macrophage, 168 h, 7 days exposure, sigmoidal analysis, P95% limits in brackets, read-out: ED50 [P95% limits]): 29500 nM
Compound: O=C1C(O)=C(C2CCC(c3ccc(Cl)cc3)CC2)C(=O)c2ccccc21 (mixture of isomers) [2-[4-(4-chlorophenyl)cyclohexyl]-3-hydroxy-1,4-naphthoquinone]
activity against L. donovani in vitro (Leishmania donovani; 50 μM): active at 50 μM concentration against L. donovani
inhibition at 0.4 µM (Leishmania donovani; Leishmania donovani, Peritoneal macrophage, 168 h, 0.4 μM, 7 days): 6%
inhibition at 2 µM (Leishmania donovani; Leishmania donovani, Peritoneal macrophage, 168 h, 2 μM, 7 days): 0%
inhibition at 10 µM (Leishmania donovani; Leishmania donovani, Peritoneal macrophage, 168 h, 10 μM, 7 days): 14.7%
inhibition at 50 µM (Leishmania donovani; Leishmania donovani, Peritoneal macrophage, 168 h, 50 μM, 7 days): 64.8%
% Suppression of Liver Amastigotes (L. donovani; 100 mg/kg/day × 5, Oral): 0%
% Suppression of Liver Amastigotes (L. donovani; 100 mg/kg/day × 5, Subcutaneous): 30.5%
activity against L. donovani in vivo (L. donovani; subcutaneous): active when administered subcutaneously

IC50 (B-divergens [1]; in vitro, bovine red cells): 460 nM
IC50 (B-divergens [2]; in vitro, human red cells): 517 nM
Compound: N=C(N)c1cccc(NC(=O)Nc2cccc(C(=N)N)c2)c1 [Amicarbalide isethionate]

IC50 (B-divergens [1]; in vitro, bovine red cells): 100 nM
IC50 (B-divergens [2]; in vitro, human red cells): 310 nM
Compound: O=C(Nc1cccc(C2=NCCN2)c1)Nc1cccc(C2=NCCN2)c1 [Imizol]
use in patients to cure B-divergens (B-divergens [3]): used successfully in two patients to cure B-divergens

IC50 (B-divergens [1]; in vitro, bovine red cells): 34 nM
IC50 (B-divergens [2]; in vitro, human red cells): 96 nM
Compound: C[n+]1cccc2cc(NC(=O)Nc3ccc4c(ccc[n+]4C)c3)ccc21 [Quinuronium sulphate]

IC50 (B-divergens [1]; in vitro, bovine red cells): 17.9 nM
IC50 (B-divergens [2]; in vitro, human red cells): 36.3 nM
Compound: O=C1C(O)=C([C@H]2CC[C@H](c3ccc(Cl)cc3)CC2)C(=O)c2ccccc21 [Test compound, 2-[trans-4-(4-chlorophenyl)cyclohexyl]-3-hydroxy-1,4-naphthoquinone]
effectiveness in vitro compared with Imizol (B-divergens [2]; in vitro, Table 1 covers bovine and human red cells): more effective than Imizol in vitro
